# Experimental data published in ChEMBL document CHEMBL5465560, “Selectivity Literature for EUbOPEN Chemogenomic Library” (2024).
# Tests used:
# [1] = biological target: Ribosomal protein S6 kinase alpha-6 (Homo sapiens, UniProt Q9UK32); settings: at 10 µM
# [2] = biological target: T1, Ephrin type-A receptor 6 (Homo sapiens) (UniProt Q9UF33); assay: Selectivity interaction (ProQinase) EUB0000171b EPHA6
# T1 sequence (whole entry): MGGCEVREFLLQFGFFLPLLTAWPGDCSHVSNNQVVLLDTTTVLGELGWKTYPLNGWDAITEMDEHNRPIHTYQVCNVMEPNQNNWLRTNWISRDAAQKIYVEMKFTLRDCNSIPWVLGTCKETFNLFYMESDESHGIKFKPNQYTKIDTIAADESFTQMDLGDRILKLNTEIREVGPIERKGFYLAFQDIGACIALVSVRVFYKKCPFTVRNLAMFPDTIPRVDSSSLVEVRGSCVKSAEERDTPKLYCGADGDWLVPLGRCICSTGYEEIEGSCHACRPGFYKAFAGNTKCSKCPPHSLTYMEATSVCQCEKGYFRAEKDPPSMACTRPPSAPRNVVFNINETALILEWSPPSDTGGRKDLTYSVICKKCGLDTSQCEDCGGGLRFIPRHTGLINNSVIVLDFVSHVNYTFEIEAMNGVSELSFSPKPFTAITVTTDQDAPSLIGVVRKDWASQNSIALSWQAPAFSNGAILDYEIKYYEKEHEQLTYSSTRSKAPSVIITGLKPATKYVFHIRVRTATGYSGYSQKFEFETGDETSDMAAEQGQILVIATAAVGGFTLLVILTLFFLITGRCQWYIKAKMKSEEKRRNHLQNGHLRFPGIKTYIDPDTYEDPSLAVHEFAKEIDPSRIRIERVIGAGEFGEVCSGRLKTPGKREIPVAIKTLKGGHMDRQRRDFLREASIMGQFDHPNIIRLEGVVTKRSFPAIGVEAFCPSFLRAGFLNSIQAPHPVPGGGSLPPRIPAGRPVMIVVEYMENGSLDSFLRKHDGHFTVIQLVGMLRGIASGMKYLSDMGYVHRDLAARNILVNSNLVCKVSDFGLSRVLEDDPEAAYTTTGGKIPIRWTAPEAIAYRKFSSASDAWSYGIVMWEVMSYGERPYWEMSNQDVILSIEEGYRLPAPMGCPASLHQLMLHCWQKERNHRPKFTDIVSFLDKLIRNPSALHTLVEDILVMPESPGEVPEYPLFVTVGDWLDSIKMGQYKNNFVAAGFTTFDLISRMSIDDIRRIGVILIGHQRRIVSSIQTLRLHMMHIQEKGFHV
# [3] = biological target: T2, Dual specificity mitogen-activated protein kinase kinase 3 (Homo sapiens) (UniProt P46734); assay: Selectivity interaction (Kinase panel (KiNativ target engagement assay in Jurkat cells)) EUB0001635a MAP2K3; format: cell-based; settings: at 1 µM
# T2 sequence (whole entry): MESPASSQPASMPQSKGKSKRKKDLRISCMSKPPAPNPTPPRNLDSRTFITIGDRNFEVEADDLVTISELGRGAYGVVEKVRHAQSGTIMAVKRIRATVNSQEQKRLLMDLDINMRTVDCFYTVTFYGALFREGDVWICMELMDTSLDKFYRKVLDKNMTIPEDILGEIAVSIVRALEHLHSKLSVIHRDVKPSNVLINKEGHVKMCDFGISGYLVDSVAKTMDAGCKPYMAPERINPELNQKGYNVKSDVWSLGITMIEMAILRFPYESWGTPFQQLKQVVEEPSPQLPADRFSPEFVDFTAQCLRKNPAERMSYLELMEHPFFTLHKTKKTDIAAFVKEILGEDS
# [4] = biological target: Serine/threonine-protein kinase 16 (Homo sapiens, UniProt O75716); assay: Selectivity interaction (KinomeScan (DiscoverX)) EUB0000666a STK16; settings: at 10 µM
# Chain of Serine/threonine-protein kinase 16 (O75716 whole entry): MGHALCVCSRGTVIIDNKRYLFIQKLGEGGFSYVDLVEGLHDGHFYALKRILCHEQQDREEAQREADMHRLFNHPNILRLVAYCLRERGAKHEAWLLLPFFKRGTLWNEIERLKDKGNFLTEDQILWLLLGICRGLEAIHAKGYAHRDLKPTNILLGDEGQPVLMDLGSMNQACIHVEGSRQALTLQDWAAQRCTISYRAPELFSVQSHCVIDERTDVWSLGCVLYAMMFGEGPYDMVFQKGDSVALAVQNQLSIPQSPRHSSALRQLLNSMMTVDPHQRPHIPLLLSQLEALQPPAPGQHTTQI
# [5] = biological target: SRSF protein kinase 3 (Homo sapiens) (UniProt Q9UPE1); settings: at 10 µM
# Chain of SRSF protein kinase 3 (Homo sapiens) (Q9UPE1 whole entry): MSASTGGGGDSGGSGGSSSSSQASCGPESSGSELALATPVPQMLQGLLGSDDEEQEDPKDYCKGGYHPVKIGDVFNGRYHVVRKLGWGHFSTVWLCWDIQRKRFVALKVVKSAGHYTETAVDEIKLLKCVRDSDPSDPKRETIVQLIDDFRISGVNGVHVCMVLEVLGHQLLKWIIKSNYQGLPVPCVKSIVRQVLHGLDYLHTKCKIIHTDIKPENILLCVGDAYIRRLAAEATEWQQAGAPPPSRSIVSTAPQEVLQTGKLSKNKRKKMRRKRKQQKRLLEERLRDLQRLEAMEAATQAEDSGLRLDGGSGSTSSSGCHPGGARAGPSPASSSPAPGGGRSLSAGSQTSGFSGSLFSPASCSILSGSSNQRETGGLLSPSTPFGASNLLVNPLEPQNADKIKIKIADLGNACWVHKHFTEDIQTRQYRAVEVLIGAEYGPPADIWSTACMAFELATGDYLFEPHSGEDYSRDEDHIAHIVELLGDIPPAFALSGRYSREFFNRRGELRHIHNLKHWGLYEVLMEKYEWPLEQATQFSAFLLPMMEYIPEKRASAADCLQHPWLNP
# [6] = biological target: MAP/microtubule affinity-regulating kinase 3 (Homo sapiens) (UniProt P27448); assay: Selectivity interaction (ActivX KiNativ screen (kinase selectivity in THP-1 cell lysates)) EUB0000639a MARK3; format: subcellular; settings: lysate, at 5 µM
# Chain of MAP/microtubule affinity-regulating kinase 3 (Homo sapiens) (P27448 whole entry, looked up): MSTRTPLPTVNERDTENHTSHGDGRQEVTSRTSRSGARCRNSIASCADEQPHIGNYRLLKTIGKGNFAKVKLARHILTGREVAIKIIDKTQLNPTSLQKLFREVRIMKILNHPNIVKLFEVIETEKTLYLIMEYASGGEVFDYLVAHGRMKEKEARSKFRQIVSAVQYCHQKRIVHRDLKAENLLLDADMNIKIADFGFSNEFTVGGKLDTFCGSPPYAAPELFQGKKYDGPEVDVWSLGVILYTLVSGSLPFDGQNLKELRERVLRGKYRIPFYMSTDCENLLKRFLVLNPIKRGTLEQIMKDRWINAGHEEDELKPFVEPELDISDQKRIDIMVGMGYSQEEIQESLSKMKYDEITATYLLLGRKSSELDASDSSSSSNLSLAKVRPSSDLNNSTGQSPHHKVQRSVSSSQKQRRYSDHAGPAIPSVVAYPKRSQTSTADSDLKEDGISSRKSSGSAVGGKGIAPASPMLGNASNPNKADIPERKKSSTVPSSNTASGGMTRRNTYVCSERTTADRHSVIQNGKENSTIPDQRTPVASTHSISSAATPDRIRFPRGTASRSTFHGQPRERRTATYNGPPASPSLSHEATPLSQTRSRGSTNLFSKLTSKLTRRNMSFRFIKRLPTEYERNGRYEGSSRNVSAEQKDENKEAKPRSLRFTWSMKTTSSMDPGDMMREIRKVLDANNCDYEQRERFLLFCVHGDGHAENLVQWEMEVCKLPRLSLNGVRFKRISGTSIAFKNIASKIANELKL
# [7] = biological target: Ephrin type-A receptor 5 (Homo sapiens) (UniProt P54756); assay: Selectivity interaction (Kinase panel (Invitrogen)) EUB0000639a EPHA5; settings: at 200 nM
# [8] = biological target: Mitogen-activated protein kinase 10 (Homo sapiens, UniProt P53779); assay: Selectivity interaction (Kinase panel (Invitrogen)) EUB0000639a MAPK10; settings: at 200 nM
# Chain of Mitogen-activated protein kinase 10 (P53779 whole entry): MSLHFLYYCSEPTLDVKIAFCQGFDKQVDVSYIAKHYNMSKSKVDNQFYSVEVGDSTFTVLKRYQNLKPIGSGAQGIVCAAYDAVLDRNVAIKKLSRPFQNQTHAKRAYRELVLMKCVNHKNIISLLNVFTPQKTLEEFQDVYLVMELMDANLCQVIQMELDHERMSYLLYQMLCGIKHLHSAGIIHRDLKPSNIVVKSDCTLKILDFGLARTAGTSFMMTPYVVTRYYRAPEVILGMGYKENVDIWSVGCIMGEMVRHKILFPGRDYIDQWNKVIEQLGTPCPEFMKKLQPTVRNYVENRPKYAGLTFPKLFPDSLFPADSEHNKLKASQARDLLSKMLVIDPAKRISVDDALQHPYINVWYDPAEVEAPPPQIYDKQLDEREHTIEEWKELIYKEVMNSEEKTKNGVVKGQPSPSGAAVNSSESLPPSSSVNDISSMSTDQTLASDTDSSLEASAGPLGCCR
# [9] = biological target: Tyrosine-protein kinase Lyn (Homo sapiens, UniProt P07948); assay: Selectivity interaction (SelectScreen profiling (Invitrogen)) EUB0000607a LYN; settings: at 2 µM
# Chain of Tyrosine-protein kinase Lyn (P07948 2-512 limits assumed): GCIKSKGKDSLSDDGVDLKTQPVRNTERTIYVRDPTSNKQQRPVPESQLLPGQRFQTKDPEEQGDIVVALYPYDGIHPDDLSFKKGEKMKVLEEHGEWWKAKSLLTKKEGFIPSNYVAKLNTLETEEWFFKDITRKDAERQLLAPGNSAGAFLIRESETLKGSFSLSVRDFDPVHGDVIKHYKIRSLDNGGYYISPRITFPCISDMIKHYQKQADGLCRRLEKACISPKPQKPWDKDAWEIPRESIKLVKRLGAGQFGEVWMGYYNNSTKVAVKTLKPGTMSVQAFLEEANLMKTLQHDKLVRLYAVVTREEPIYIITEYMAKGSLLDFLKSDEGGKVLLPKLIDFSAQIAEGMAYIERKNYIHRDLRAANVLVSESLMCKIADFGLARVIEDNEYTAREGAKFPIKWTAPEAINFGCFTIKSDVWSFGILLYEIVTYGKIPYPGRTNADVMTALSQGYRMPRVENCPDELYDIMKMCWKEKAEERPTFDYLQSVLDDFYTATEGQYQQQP
# [10] = biological target: Macrophage-stimulating protein receptor (Homo sapiens, UniProt Q04912); assay: Selectivity interaction (KinomeScan (DiscoverX)) EUB0000607a MST1R; settings: at 10 µM
# [11] = biological target: Tyrosine-protein kinase Lck (Homo sapiens, UniProt P06239); assay: Selectivity interaction (Panel of non-epigenetic targets (kinases, GPCRs, ion channels, and transporters, Eurofins) ) EUB0000271b LCK; settings: at 1 µM
# Chain of Tyrosine-protein kinase Lck (P06239 2-509 limits assumed): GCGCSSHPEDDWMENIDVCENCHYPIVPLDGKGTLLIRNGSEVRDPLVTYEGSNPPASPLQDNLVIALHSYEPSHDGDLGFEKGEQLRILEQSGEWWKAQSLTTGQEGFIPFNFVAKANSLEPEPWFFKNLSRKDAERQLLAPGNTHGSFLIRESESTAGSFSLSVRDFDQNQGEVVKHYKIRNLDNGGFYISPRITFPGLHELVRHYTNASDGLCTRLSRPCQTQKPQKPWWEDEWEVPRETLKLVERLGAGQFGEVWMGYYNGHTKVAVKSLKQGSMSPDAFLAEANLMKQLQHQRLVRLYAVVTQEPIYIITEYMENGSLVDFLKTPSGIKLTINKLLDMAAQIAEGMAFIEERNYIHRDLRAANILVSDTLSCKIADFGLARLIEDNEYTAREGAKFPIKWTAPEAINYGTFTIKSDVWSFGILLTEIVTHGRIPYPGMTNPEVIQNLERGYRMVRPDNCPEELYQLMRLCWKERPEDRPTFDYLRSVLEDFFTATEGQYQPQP
# [12] = biological target: Cyclin-dependent kinase 15 (Homo sapiens) (UniProt Q96Q40); assay: Selectivity interaction (KinomeScan (DiscoverX)) EUB0000695a CDK15; settings: at 100 nM
# Chain of Cyclin-dependent kinase 15 (Homo sapiens) (Q96Q40 whole entry, the tested form may be a part): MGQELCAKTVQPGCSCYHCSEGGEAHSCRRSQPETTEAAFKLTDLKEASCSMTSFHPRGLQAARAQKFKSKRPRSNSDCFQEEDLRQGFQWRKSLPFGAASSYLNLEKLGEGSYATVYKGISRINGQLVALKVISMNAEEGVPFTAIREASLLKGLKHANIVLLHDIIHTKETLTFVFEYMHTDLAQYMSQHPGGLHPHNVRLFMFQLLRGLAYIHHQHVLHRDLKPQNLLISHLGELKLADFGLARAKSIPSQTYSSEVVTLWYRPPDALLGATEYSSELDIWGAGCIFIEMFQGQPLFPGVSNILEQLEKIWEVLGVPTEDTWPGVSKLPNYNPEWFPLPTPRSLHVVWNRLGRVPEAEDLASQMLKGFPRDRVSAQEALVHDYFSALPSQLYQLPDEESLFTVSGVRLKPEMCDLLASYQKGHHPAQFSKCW
# [13] = biological target: LIM domain kinase 1 (Homo sapiens) (UniProt P53667); assay: Selectivity interaction (KinomeScan (DiscoverX)) EUB0000595a LIMK1; settings: at 10 µM
# Chain of LIM domain kinase 1 (Homo sapiens) (P53667 whole entry, looked up, the tested form may be a part): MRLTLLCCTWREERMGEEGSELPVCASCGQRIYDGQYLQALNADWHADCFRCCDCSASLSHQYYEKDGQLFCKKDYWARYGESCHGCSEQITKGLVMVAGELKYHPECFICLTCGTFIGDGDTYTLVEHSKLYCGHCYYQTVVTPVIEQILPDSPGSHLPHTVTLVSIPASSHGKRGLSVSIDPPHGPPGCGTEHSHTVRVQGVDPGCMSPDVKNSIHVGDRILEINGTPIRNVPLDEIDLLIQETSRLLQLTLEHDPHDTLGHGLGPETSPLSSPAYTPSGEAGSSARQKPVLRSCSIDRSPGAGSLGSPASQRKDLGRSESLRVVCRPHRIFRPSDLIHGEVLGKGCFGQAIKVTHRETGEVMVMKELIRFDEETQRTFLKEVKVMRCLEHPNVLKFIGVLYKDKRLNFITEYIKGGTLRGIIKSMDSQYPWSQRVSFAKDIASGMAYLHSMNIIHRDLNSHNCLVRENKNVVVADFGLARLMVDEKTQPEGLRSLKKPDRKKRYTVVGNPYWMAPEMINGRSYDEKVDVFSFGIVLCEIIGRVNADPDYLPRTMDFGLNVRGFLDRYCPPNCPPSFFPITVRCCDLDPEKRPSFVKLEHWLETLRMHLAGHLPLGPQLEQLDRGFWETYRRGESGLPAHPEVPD
# [14] = biological target: Vascular endothelial growth factor receptor 3 (Homo sapiens, UniProt P35916); assay: Selectivity interaction (KinomeScan (DiscoverX)) EUB0000618a FLT4; settings: at 10 µM
# [15] = biological target: T3, Dual specificity mitogen-activated protein kinase kinase 7 (Homo sapiens) (UniProt O14733); assay: Selectivity interaction (Kinase screening (Nanosyn)) EUB0000604a MAP2K7
# T3 sequence (whole entry): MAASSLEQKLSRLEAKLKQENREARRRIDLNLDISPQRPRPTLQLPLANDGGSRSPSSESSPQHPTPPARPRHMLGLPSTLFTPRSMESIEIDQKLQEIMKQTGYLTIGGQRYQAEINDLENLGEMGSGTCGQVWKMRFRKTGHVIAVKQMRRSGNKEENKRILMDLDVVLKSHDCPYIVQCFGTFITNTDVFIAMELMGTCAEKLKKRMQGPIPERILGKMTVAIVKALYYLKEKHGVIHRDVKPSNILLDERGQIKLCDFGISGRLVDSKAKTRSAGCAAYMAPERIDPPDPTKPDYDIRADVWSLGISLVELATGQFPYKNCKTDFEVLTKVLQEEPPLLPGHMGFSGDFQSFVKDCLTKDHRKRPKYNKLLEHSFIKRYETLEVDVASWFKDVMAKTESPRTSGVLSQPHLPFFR
# [16] = biological target: Polycomb protein SUZ12 (Homo sapiens) (UniProt Q15022); settings: at 10 µM
# Chain of Ribosomal protein S6 kinase alpha-6 (Q9UK32 whole entry): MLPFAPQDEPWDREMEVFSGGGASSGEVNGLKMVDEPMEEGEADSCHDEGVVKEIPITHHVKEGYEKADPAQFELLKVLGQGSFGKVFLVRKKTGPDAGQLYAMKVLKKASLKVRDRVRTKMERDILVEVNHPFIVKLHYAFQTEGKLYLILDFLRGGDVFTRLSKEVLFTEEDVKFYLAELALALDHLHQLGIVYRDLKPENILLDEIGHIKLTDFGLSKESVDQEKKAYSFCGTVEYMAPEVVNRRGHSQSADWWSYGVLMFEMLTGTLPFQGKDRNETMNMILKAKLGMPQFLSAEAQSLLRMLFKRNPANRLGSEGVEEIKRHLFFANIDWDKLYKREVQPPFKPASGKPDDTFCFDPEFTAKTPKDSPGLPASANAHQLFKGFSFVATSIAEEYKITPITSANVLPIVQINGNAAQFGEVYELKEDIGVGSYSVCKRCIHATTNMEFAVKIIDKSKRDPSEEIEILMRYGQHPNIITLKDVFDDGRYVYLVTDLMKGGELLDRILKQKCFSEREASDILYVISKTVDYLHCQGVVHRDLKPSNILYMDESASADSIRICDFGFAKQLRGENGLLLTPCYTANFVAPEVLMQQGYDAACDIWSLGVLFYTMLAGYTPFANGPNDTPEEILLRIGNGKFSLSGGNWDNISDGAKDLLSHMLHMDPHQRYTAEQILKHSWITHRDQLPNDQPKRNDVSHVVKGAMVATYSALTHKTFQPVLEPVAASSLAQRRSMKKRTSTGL
smiles,measurement,setting,value
CCN(CC)CCCCNc1ncc2cc(-c3cc(OC)cc(OC)c3)c(NC(=O)NC(C)(C)C)nc2n1,% of control,[1],100%
C=CC(=O)Nc1cccc(C(=O)Nc2ccc(Nc3cc(-c4[nH]c(SC)nc4C)ccn3)cc2)c1,% of control,[2]; at 1 µM,99%
same,% of control,[2]; at 5 µM,100%
C=CC(=O)Nc1ccc(C(=O)Nc2[nH]nc3c2CN(C(=O)N[C@H](CN(C)C)c2ccccc2)C3(C)C)cc1,% of engagement,"[3]; Selectivity number of off-targets 0.0, Selectivity number of targets 233.0, Source Knowledge https://www.sciencedirect.com/science/article/pii/S2451945619300674?via%3Dihub",8.4%
same,% of engagement,[3],-7.7%
O=C(NOC[C@H](O)CO)c1ccc(F)c(F)c1Nc1ccc(I)cc1F,% of control,[4],99%
Cc1cc([C@@H](C)Nc2ccccc2C(=O)O)c2nc(N3CCOCC3)cc(=O)n2c1 [AZD-6482],% of control,[5],100%
CC[C@@H]1[C@H](F)C(=O)N[C@@H]1COc1nccc2cc(C(N)=O)c(OC)cc12 [ZIMLOVISERTIB],% of inhibition,[6],45.6%
same,% of inhibition,[7],-0.246%
same,% of inhibition,[8],6.65%
CNC(=O)Nc1ccc(-c2nc(N3CC4CCC(C3)O4)c3cnn(C4CCC5(CC4)OCCO5)c3n2)cc1,% of inhibition,[9],5%
same,% of control,[10],100%
Cc1cc(C)cc([C@@H]2c3cc(C)ccc3NC(=O)CN2C(=O)c2ccc(Br)s2)c1,% of inhibition,[11],1%
Cc1cc(F)c(C(=O)Nc2cccc(-c3nncn3C(C)C)n2)cc1-n1cnc(C2CC2)c1,% of control,[12],100%
COCC(=O)NC/C=C/c1ccc2ncnc(Nc3ccc(Oc4ccc(C)nc4)c(C)c3)c2c1 [CP-724714],% of control,[13],93%
O[C@H]1CC[C@H](Nc2ncc3nc(Nc4c(F)cc(F)cc4F)n([C@H]4CCOC4)c3n2)CC1,% of control,[14],55%
Cc1cnc(Nc2ccc(F)cc2Cl)nc1-c1c[nH]c(C(=O)N[C@H](CO)c2cccc(Cl)c2)c1,% of inhibition,[15],6%
CNCCN1CCC(c2cc(CN(C)C(=O)c3cccc(Oc4ccccc4)c3)ccn2)CC1,% activity,[16],> 90%
